Patent publication EP3628672A1 (priority 2018, dated 2020)
Where two headings read alike, the source gives them in different places.

Columns and labels:
[1] = molecular target: T1, purified LasB protein from P. aeruginosa (Pseudomonas aeruginosa, UniProt P14756); experiment: Fluorometric assay to determine Ki (Abz-Ala-Gly-Leu-Ala-p-Nitro-Benzyl-Amide substrate); assay type: biochemical
T1 construct: purchased Merck or Charles River Laboratories
In short: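 Purified P. aeruginosa LasB (10–140 ng/ml) with 250 µM Abz-Ala-Gly-Leu-Ala-p-nitrobenzylamide in 50 mM Tris-HCl pH 7.4, 2.5 mM CaCl2, 0.01% Triton X100, 37 °C; hydrolysis fluorescence (Ex 340/Em 415 nm) followed over 30 min, inhibitor 0.0016–200 µM. Ki = IC50/(1+[S]/Km), Km 214 µM.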

LasB = molecular target: T2, LasB (Pseudomonas aeruginosa, UniProt P14756); experiment: Elastin assay to determine % inhibition (Elastin Congo-Red, dialysed culture supernatant); assay type: biochemical, P. aeruginosa PAO1; settings: read-out: Elastin hydrolysis % inhibition @ 50 / 25 µM inhibitor concentration
T2 construct: uses as source of enzyme dialysed supernatant from P. aeruginosa PAO1; endogenous in cells; host or cells: P. aeruginosa PAO1 culture supernatant, filtered and dialysed
T2 sequence (P14756 198-498): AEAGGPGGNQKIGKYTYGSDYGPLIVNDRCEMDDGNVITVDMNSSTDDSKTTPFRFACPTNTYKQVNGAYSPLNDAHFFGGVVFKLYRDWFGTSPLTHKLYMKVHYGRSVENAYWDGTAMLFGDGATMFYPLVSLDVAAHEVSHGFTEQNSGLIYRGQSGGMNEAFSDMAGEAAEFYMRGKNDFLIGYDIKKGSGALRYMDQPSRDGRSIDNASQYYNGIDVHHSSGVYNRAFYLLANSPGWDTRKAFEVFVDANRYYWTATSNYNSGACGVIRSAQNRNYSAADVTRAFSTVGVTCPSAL
In short: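 Enzyme source was dialysed PAO1 culture supernatant (50 mM Tris-HCl pH 7.4, 2.5 mM CaCl2), mixed with Elastin Congo-Red and 0.01% Triton X-100. Compound was routinely 50 to 1.56 µM, incubated overnight at 37 °C with shaking. Dye release at OD495 gave % inhibition relative to DMSO and no-enzyme controls.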

[2] = Ki calculated from IC50, [S] = 250 µM, Km = 214 µM, 37°C, pH 7.4

T1 sequence (P14756 198-498): as above

COc1cc(OCC(=O)N2CC[N+](C)(C)CC2)ccc1-c1csc(CNC(=O)C2(CC(=O)[O-])Cc3ccccc3C2)n1 [Example 79, 2-[2-[[4-[4-[2-(4,4-dimethylpiperazin-4-ium-1-yl)-2-oxo-ethoxy]-2-methoxy-phenyl]thiazol-2-yl]methylcarbamoyl]indan-2-yl]acetate]
Ki [1]: 50 to 200 nM | inhibition at 25 µM (LasB): 60 to 75%

COc1cc(OCC(=O)N2CC[N+](C)(C)CC2)ccc1-c1csc(CNC(=O)C2(CC(=O)[O-])Cc3cc(F)c(F)cc3C2)n1 [Example 82, 2-[2-[[4-[4-[2-(4,4-dimethylpiperazin-4-ium-1-yl)-2-oxo-ethoxy]-2-methoxy-phenyl]thiazol-2-yl]methylcarbamoyl]-5,6-difluoro-indan-2-yl]acetate]
Ki [1]: 50 to 200 nM | inhibition at 25 µM (LasB): 60 to 75%

O=C(O)CC1(C(=O)NCc2nc(-c3cnn(CCCN4CCCOCC4)c3)cs2)Cc2ccccc2C1 [Example 109, 2-[2-[[4-[1-[3-(1,4-oxazepan-4-yl)propyl]pyrazol-4-yl]thiazol-2-yl]methylcarbamoyl]indan-2-yl]acetic acid]
Ki [1]: 50 to 200 nM | inhibition at 25 µM (LasB): 60 to 75%

COc1cc(OCCCN(C)C)ccc1-c1csc(CNC(=O)C2(CC(=O)O)Cc3cc(F)c(F)cc3C2)n1 [Example 80, 2-[2-[[4-[4-[3-(dimethylamino)propoxy]-2-methoxyphenyl]thiazol-2-yl]methylcarbamoyl]-5,6-difluoro-indan-2-yl]acetic acid]
Ki [1]: 50 to 200 nM | inhibition at 25 µM (LasB): 60 to 75%

COc1cc(N2CC(N(C)C)C2)ccc1-c1csc(CNC(=O)C2(CC(=O)O)Cc3ccccc3C2)n1 [Example 32, 2-[2-[[4-[4-[3-(dimethylamino)azetidin-1-yl]-2-methoxy-phenyl]thiazol-2-yl]methylcarbamoyl]indan-2-yl]acetic acid]
Ki [1]: 50 to 200 nM | inhibition at 25 µM (LasB): > 75%

COc1ccc(-c2csc(CNC(=O)C3(CC(=O)O)Cc4cc(F)c(F)cc4C3)n2)cc1S(=O)(=O)N1CCC(N(C)C)CC1 [Example 123, 2-[2-[[4-[3-[[4-(dimethylamino)-1-piperidyl]sulfonyl]-4-methoxy-phenyl]thiazol-2-yl]methylcarbamoyl]-5,6-difluoro-indan-2-yl]acetic acid]
Ki [1]: < 50 nM | inhibition at 25 µM (LasB): 60 to 75%

C[N+]1(CCOc2ccc(-c3csc(CNC(=O)C4(CC(=O)[O-])Cc5ccccc5C4)n3)cc2)CCOCC1 [Example 50, 2-[2-[[4-[4-[2-(4-methylmorpholin-4-ium-4-yl)ethoxy]phenyl]thiazol-2-yl]methylcarbamoyl]indan-2-yl]acetate]
Ki [1]: 200 to 10000 nM | inhibition at 25 µM (LasB): 60 to 75%

CN(C)C1CN(c2ccc(-c3csc(CNC(=O)C4(CC(=O)O)Cc5ccccc5C4)n3)cc2)C1 [Example 27]
Ki [1, 2]: 50 to 200 nM | inhibition at 25 µM (LasB): 60 to 75%

COc1cc(OCCc2n(C)cc[n+]2C)ccc1-c1csc(CNC(=O)C2(CC(=O)[O-])Cc3cc(F)c(F)cc3C2)n1 [Example 86, 2-[2-[[4-[4-[2-(1,3-dimethylimidazol-1-ium-2-yl)ethoxy]-2-methoxy-phenyl]thiazol-2-yl]methylcarbamoyl]-5,6-difluoro-indan-2-yl]acetate]
Ki [1]: 50 to 200 nM | inhibition at 25 µM (LasB): 60 to 75%

O=C(O)CC1(C(=O)NCc2nc(-c3ccc(OCCCN4CCCC4)cc3)cs2)Cc2ccccc2C1 [Example 58, 2-[2-[[4-[4-(3-pyrrolidin-1-ylpropoxy)phenyl]thiazol-2-yl]methylcarbamoyl]indan-2-yl]acetic acid]
Ki [1]: 50 to 200 nM | inhibition at 25 µM (LasB): 60 to 75%

CN1CCN(C(=O)COc2cccc(-c3csc(CNC(=O)C4(CC(=O)O)Cc5ccccc5C4)n3)c2)CC1 [Example 54, 2-[2-[[4-[3-[2-(4-methylpiperazin-1-yl)-2-oxo-ethoxy]phenyl]thiazol-2-yl]methylcarbamoyl]indan-2-yl]acetic acid]
Ki [1, 2]: 200 to 10000 nM | inhibition at 25 µM (LasB): 60 to 75%

CCc1ccccc1-c1csc(CNC(=O)C2(CC(=O)O)Cc3ccccc3C2)n1 [Example 147, 2-[2-[[4-(2-ethylphenyl)thiazol-2-yl]methylcarbamoyl]indan-2-yl]acetic acid]
Ki [1]: 50 to 200 nM | inhibition at 25 µM (LasB): 60 to 75%
